The values below come from PMC10385743.

Several values for one entry are separate records, joined by “and”; a condition that tells them apart may be missing. Equal values may be shown once. Read-outs that look alike come from different tables or passages of the source.

For data set [1], the system named is bloodstream form T. b. brucei (strain 221). The note with it: cited from earlier work.
Data set [2] deals with T. cruzi (CL Brener strain) epimastigotes. Also on record: method as in PMID 31303998. Particulars: lead compound; cited from earlier work.
Data set [3] deals with rat skeletal myoblast L6 cells. Also noted: method as in PMID 31303998. Particulars: lead compound; cited from earlier work.
Data set [4] deals with Huh5-2 cells. Also on record: method as in PMID 31303998. Particulars: lead compound; read-out: Huh5-2 (HCV Replicon 1b) CC50; cited from earlier work. (In general: A replicon is a self-replicating genome or part of one, used to study replication in cells.)
Data set [5] relates to HCV GT 3a (strain S52) subgenomic replicon. Also noted: method as in PMID 31303998. Particulars: lead compound; read-out: Huh7.5-3a(S52) (HCV Replicon 3a) EC50; cited from earlier work.
Data set [6] concerns HCV GT 4a (strain ED43) subgenomic replicon. Also noted: method as in PMID 31303998. Particulars: lead compound; read-out: Huh7.5-4a(ED43) (HCV Replicon 4a) EC50; cited from earlier work.
In data set [7] the test system is DENV serotype 2 (strain 16681) subgenomic replicon. Also noted: method as in PMID 31303998. Particulars: lead compound; read-out: Huh7-D2 (DENV-2 Replicon) EC50; cited from earlier work.
The test system of data set [8] is HCV GT 3a (strain S52) subgenomic replicon. As to the kind of experiment: microbe, parasite or virus in culture. The data set is classed as cell-based, hepatitis C virus. Particulars: 72 h, luciferase, mean ± SD, read-out: Huh7.5-3a(S52) (HCV Replicon 3a) EC50.
Data set [9] concerns HCV GT 4a (strain ED43) subgenomic replicon. Briefly: microbe, parasite or virus in culture. The data set is classed as cell-based, hepatitis C virus. The note with it: for EC50: 72 h, luciferase, mean ± SD, read-out: Huh7.5-4a(ED43) (HCV Replicon 4a) EC50.
The test system of data set [10] is YFV (strain 17D) subgenomic replicon. Briefly: microbe, parasite or virus in culture. The data set is classed as cell-based, yellow fever virus. Particulars: read-out: Huh7-YF (YFV Replicon 17D) EC50, 72 h.
Data set [11] relates to DENV serotype 2 (strain 16681) subgenomic replicon. As to the kind of experiment: microbe, parasite or virus in culture. The data set is classed as cell-based, dengue virus. Particulars: 72 h, luciferase, mean ± SD, read-out: Huh7-D2 (DENV-2 Replicon) EC50.
Data set [12] concerns bloodstream form T. b. brucei (strain 221). The note with it: for SI (CC50 for L6 cells / EC50 for T. brucei): selectivity index.
Data set [13] concerns T. cruzi (CL Brener strain) epimastigotes. The note with it: read-out: T. cruzi EC50; epimastigotes; mean of triplicate experiments ± SEM.
Data set [14] concerns rat skeletal myoblast L6 cells. As to the kind of experiment: Cytotoxicity against cultured L6 cells (resazurin). The note with it: read-out: L6 Cells CC50; mean of triplicate experiments ± SEM. A general note: The colour change of resazurin is a common sign of viable cells or microbes.
Data set [15] deals with Huh5-2 cells. Briefly: Cytotoxicity in Huh5-2 replicon cells (intracellular ATP levels). The note with it: read-out: Huh5-2 (HCV Replicon 1b) CC50; 72 h; ATP levels; mean ± SD; * highest concentration used 10 μΜ.
The subject of data set [16] is HCV GT 1b (Con1). As to the kind of experiment: Combinatory activity of 34 with daclatasvir (DCV) in Huh5-2 replicon cells, F-Luc activity. The data set is classed as cell-based, hepatitis C virus. The method, then:
The Huh5-2 replicon cell line was treated with compound 34 in the presence or absence of daclatasvir (DCV) to test its effectiveness in combination with an authorized NS5A inhibitor (DCV) (Figure 6).
Figure 6 Combinatory activity of 34 with DCV against HCV GT 1b (Con1). Huh5-2 cells were treated or not with the analog in the presence or absence of 20 pM DCV. F-Luc activity was measured and calculated as relative light units (RLU) per μg of total protein. […] CDI: coefficient of drug interaction. […] Error bars represent standard deviation (SD). TEXT PRINTED IN THE PICTURE: DCV + 34: CDI: 1.09 (1μM); CDI: 0.91 (2μM)

Data set [17] deals with bloodstream form T. b. brucei (strain 221). As to the kind of experiment: microbe, parasite or virus in culture. Particulars: Trypanosoma brucei, mean of triplicate experiments ± SEM.
Data set [18] concerns T. cruzi (CL Brener strain) epimastigotes. Briefly: microbe, parasite or virus in culture. Particulars: Trypanosoma cruzi, read-out: T. cruzi EC50.
Data set [19] can be described thus: Cytotoxicity against cultured L6 cells (resazurin). The note with it: rat, L6 rat skeletal myoblast cells, L6 Cells CC50, mean of triplicate experiments ± SEM.
For data set [20], the system named is HCV GT1b (Con1) replicon RNA. Particulars: Hepatitis C virus, Huh-5-2, read-out: HCV RNA EC50.
A short description of data set [21]: Cytotoxicity in Huh5-2 replicon cells (intracellular ATP levels). The note with it: human.

For the compound `O=C(CN1C(=O)NC2(CCCc3ccccc32)C1=O)NO` (stereo not drawn) [V], the 50% effective concentration (EC50) (in general, the concentration needed to bring the measured effect to its halfway point) in [1] (earlier lead compounds, read-out: T. brucei EC50) was 710 ± 120 nM; in data set [2], above 30000 nM; in data set [5] it was 2370 ± 170 nM; in data set [6], 380 ± 40 nM; in data set [7], 61500 ± 3860 nM. The EC90 (commonly the concentration needed for an effect of 90%) in data set [1] (lead compound) was 1270 ± 20 nM; in data set [2], above 30000 nM. Moreover, the “SI (CC50 for L6 cells / EC50 for T. brucei)” value in data set [1] (lead compound) was 590. In addition, the CC50 – broadly, the concentration at which the toxic effect on the cells reaches its halfway point – is 419000 ± 55000 nM in [3] and above 200000 nM in data set [4].
For `CC1CCC2(NC(=O)N(CC(=O)NO)C2=O)c2ccccc21` [Compound 35, Ν-(Hydroxy)-2-((4R,4′R)/(4S,4′S)-4′-methyl-2,5-dioxo-3′,4′-dihydro-2′H-spiro[imidazolidine-4,1′-naphthalene]-1-yl)acetamide], the EC50 in data set [8] was 770 ± 30 nM; in [9] it was 410 ± 20 nM; in data set [10] (luciferase, mean ± SD), above 10000 nM; in [11] it was above 10000 nM; in [12] (read-out: T. brucei EC50, cultured bloodstream form, mean of triplicate experiments ± SEM), 560 ± 70 nM; in data set [13] it was above 30000 nM. Further, the EC90 in data set [12] (read-out: T. brucei EC90, cultured bloodstream form, mean of triplicate experiments ± SEM) came out at 860 ± 190 nM. In [12], the “SI (CC50 for L6 cells / EC50 for T. brucei)” value came to 400. In addition, the half-maximal cytotoxic concentration (CC50) in data set [14] is > 200000 nM and 224000 nM; in [15] it was above 200000 nM.
Regarding `CC1CCC2(NC(=O)N(CC(=O)NO)C2=O)c2ccccc21` [Compound 34, Ν-(hydroxy)-2-((4R,4′S)/(4S,4′R)-4′-methyl-2,5-dioxo-3′,4′-dihydro-2′H-spiro[imidazolidine-4,1′-naphthalene]-1-yl)acetamide], the 50% effective concentration (EC50) in [8] (Hepatitis C virus, GT3A) is 630 ± 80 nM; in data set [9], 140 ± 10 nM; in data set [10] (Yellow fever virus), above 10000 nM; in data set [11] (Dengue virus, DENV2) it was above 10000 nM; in [17] (read-out: T. brucei EC50, cultured bloodstream form), 670 ± 90 nM; in data set [18], above 30000 nM. The EC50 in data set [20] amounted to 726 nM. The “fold more active against GT 4a than lead molecule V” value in [9] came out at 2.5 fold. Moreover, the CDI turned out to be 1.09 in [16] (1 μM 34 with 20 pM DCV) and 0.91 in data set [16] (2 μM 34 with 20 pM DCV). Also, the “coefficient of drug interaction (CDI)” value in data set [16] (34 in combination with daclatasvir (DCV)) is listed as “≈ 1”. Besides, in [12], the “SI (CC50 for L6 cells / EC50 for T. brucei)” value worked out at 335. Moreover, the 90% effect concentration (EC90) in data set [17] (read-out: T. brucei EC90, cultured bloodstream form) was 920 ± 230 nM. Also, the 50% cytotoxic concentration (CC50) at 6 days in data set [19] was above 200000 nM. In addition, the CC50 in data set [14] stood at 224000 ± 20000 nM. This compound also had a 50% cytotoxic concentration (CC50) at 72 h in [21] above 200000 nM.
